The values that follow come from PubChem BioAssay (NCI).

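Each compound was tested at five concentrations against cells in 96-well plates for 48 hours. GI50 is the concentration that inhibits growth by half. TGI: concentration producing complete growth inhibition.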

Test systems include MCF7 breast; SK-MEL-2 melanoma; HT29 colon; MDA-MB-231 breast; OVCAR-5 ovarian; SF-295 CNS; MALME-3M melanoma; DU-145 prostate.
What all share (experiment): growth of human tumour cells (NCI), 48 h

Take `c1ccc2cc(OCC3CO3)c(OCC3CO3)cc2c1` (configuration not stated): the TGI in the experiment with MCF7 breast was found to be 10.1 µM; in the experiment with SK-MEL-2 melanoma, 29 µM; in the experiment on HT29 colon it was 20.1 µM; in the experiment with MDA-MB-231 breast it was 55.1 µM; in the experiment with OVCAR-5 ovarian, 23.4 µM; in the experiment on SF-295 CNS, 8.59 µM. The TGI in the experiment with MALME-3M melanoma turned out to be 36.5 µM; with DU-145 prostate, 16.7 µM.

`CCN(CC)CCCCCOc1cc(O)c2c(=O)cc(-c3ccccc3)oc2c1`: the GI50 in the experiment with MCF7 breast is 1.66 µM; in the experiment on SK-MEL-2 melanoma, 3.23 µM; with HT29 colon, 2.21 µM; with MDA-MB-231 breast, 1.49 µM; in the experiment with OVCAR-5 ovarian, 2.37 µM; with SF-295 CNS, 2.87 µM. The GI50 with MALME-3M melanoma is 1.86 µM; in the experiment with DU-145 prostate, 4.61 µM. Further, the TGI was 3.83 µM with MCF7 breast; 11.4 µM in the experiment on SK-MEL-2 melanoma; 5.5 µM in the experiment with HT29 colon; 4.34 µM in the experiment with MDA-MB-231 breast; 6.97 µM in the experiment on OVCAR-5 ovarian; 5.69 µM with SF-295 CNS. The figures for the TGI in the experiment with MALME-3M melanoma and in the experiment on DU-145 prostate were 4.2 µM and 17.4 µM, respectively.

With `COc1cc(C2CC(c3ccc4c(c3)OCO4)=NN2C(C)=O)cc(OC)c1OC` (configuration not stated), the GI50 was 0.352 µM with MCF7 breast; over 100 µM in the experiment with SK-MEL-2 melanoma; 0.378 µM with HT29 colon; 4.07 µM in the experiment with MDA-MB-231 breast; 4.28 µM in the experiment on OVCAR-5 ovarian; 0.368 µM in the experiment on SF-295 CNS. Also, the GI50 in the experiment on MALME-3M melanoma is 1.88 µM; with DU-145 prostate, 1.06 µM. The TGI in the experiment on MCF7 breast was over 100 µM; with SK-MEL-2 melanoma, over 100 µM; with HT29 colon it was over 100 µM; with MDA-MB-231 breast it was over 100 µM; with OVCAR-5 ovarian, over 100 µM; in the experiment with SF-295 CNS it was 4.51 µM. Also, the TGI in the experiment on MALME-3M melanoma was over 100 µM; in the experiment with DU-145 prostate, over 21.4 µM.

Take `CCCC[P+](c1ccccc1)(c1ccccc1)c1ccccc1`: the GI50 is 1.33 µM in the experiment on MCF7 breast; 3.42 µM in the experiment with SK-MEL-2 melanoma; 3.03 µM in the experiment on HT29 colon; 9.13 µM in the experiment on MDA-MB-231 breast; 12.5 µM with OVCAR-5 ovarian; 5.29 µM in the experiment on SF-295 CNS. The GI50 in the experiment on MALME-3M melanoma was 4.29 µM; in the experiment on DU-145 prostate it was 4.41 µM. The TGI was over 100 µM in the experiment on MCF7 breast; 19.6 µM in the experiment on SK-MEL-2 melanoma; over 100 µM with HT29 colon; over 100 µM in the experiment with MDA-MB-231 breast; over 100 µM with OVCAR-5 ovarian; 37.3 µM with SF-295 CNS. Besides, the TGI in the experiment on MALME-3M melanoma and in the experiment with DU-145 prostate was over 100 µM in each case.

Consider `C#CCOc1ccc2ncnc(Nc3ccc(NC(=O)CCl)cc3)c2c1`, for which the GI50 with MCF7 breast was 3.61 µM; in the experiment on SK-MEL-2 melanoma it was 12.6 µM; with HT29 colon it was 4.22 µM; in the experiment with MDA-MB-231 breast it was 4.51 µM; in the experiment on OVCAR-5 ovarian, 16.8 µM; in the experiment with SF-295 CNS it was 10.1 µM. The GI50 in the experiment with MALME-3M melanoma was 4.58 µM; in the experiment with DU-145 prostate, 11.7 µM. Moreover, the TGI with MCF7 breast came out at 15.9 µM; in the experiment with SK-MEL-2 melanoma, 57.3 µM; in the experiment on HT29 colon it was 16 µM; in the experiment with MDA-MB-231 breast it was 20 µM; with OVCAR-5 ovarian, 44.7 µM; with SF-295 CNS it was 24.5 µM. Also, the values for the TGI in the experiment on MALME-3M melanoma and with DU-145 prostate were 18.1 µM and 24 µM, respectively.

On to `CC(F)(F)c1cc(F)ccc1-c1sc2cc(O)ccc2c1Oc1ccc(/C=C/C(=O)O)cc1`, for which the TGI turned out to be 15.2 µM with MCF7 breast; 20.8 µM in the experiment on SK-MEL-2 melanoma; 36.1 µM with HT29 colon; 35 µM with MDA-MB-231 breast; 37.7 µM with OVCAR-5 ovarian; 20.5 µM in the experiment on SF-295 CNS. Further, the values for the TGI with MALME-3M melanoma and in the experiment on DU-145 prostate were 44.4 µM and 28.5 µM, respectively. The GI50 is 4.43 µM with SK-MEL-2 melanoma; 11.8 µM with HT29 colon; 14.3 µM with MDA-MB-231 breast; 17.4 µM in the experiment with OVCAR-5 ovarian; 5.23 µM in the experiment on SF-295 CNS; 11.6 µM with MALME-3M melanoma. Besides, in the experiment with DU-145 prostate, the GI50 was 12.7 µM.

Take `CCCC(=O)NC(c1ccc2c(c1)OCO2)c1ccc2cccnc2c1O` (configuration not stated): the GI50 in the experiment with MCF7 breast is 0.748 µM; in the experiment with SK-MEL-2 melanoma, 4.99 µM; in the experiment with HT29 colon it was 3.92 µM; with MDA-MB-231 breast it was 1.64 µM; with OVCAR-5 ovarian, 2.75 µM; with SF-295 CNS, 0.728 µM. Besides, the values for the GI50 in the experiment on MALME-3M melanoma and in the experiment with DU-145 prostate were 2.17 µM and 2 µM, respectively. Also, the TGI with MCF7 breast was over 100 µM; in the experiment on SK-MEL-2 melanoma, over 100 µM; in the experiment with HT29 colon, over 100 µM; with MDA-MB-231 breast, over 100 µM; with OVCAR-5 ovarian, over 100 µM; in the experiment with SF-295 CNS it was 42.6 µM. The TGI in the experiment on MALME-3M melanoma and in the experiment with DU-145 prostate was over 100 µM each time.

With `CS(=O)c1ccc(-c2nc(-c3ccc(F)cc3)c(-c3ccncc3)[nH]2)cc1` (configuration not stated), the GI50 in the experiment with MCF7 breast is 33.6 µM; with SK-MEL-2 melanoma, 23 µM; with HT29 colon it was 10.7 µM; in the experiment with MDA-MB-231 breast it was 48.4 µM; with OVCAR-5 ovarian, 55 µM; in the experiment with SF-295 CNS, 29.1 µM. For the same molecule, the figures for the GI50 with MALME-3M melanoma and in the experiment on DU-145 prostate were 14.2 µM and 31.7 µM, respectively. Moreover, the TGI in the experiment with MCF7 breast is over 100 µM; in the experiment on SK-MEL-2 melanoma, 49.4 µM; with HT29 colon, over 89.4 µM; in the experiment with MDA-MB-231 breast it was over 100 µM; in the experiment with OVCAR-5 ovarian it was over 100 µM; in the experiment with SF-295 CNS it was over 71.6 µM. Moreover, the figures for the TGI in the experiment on MALME-3M melanoma and in the experiment on DU-145 prostate were 64.9 µM and over 100 µM, respectively.

Regarding `O=C(O)c1ccc(-c2ccc(C(=O)O)cc2I)c(I)c1`, the GI50 with MCF7 breast, in the experiment with SK-MEL-2 melanoma, in the experiment on HT29 colon, in the experiment with MDA-MB-231 breast, with OVCAR-5 ovarian and in the experiment with SF-295 CNS was over 100 µM each time. The GI50 in the experiment with MALME-3M melanoma and in the experiment with DU-145 prostate was over 100 µM throughout. Further, the TGI in the experiment on MCF7 breast, in the experiment on SK-MEL-2 melanoma, with HT29 colon, in the experiment on MDA-MB-231 breast, in the experiment with OVCAR-5 ovarian and with SF-295 CNS was over 100 µM each time. Further, the TGI in the experiment on MALME-3M melanoma and with DU-145 prostate was over 100 µM throughout.

As to `O=[N+]([O-])c1cc(Cl)cc2c1nc(NCCO)c1ccccc12`, the TGI was over 72.4 µM in the experiment with MCF7 breast; 43.8 µM in the experiment with SK-MEL-2 melanoma; over 43 µM in the experiment on HT29 colon; over 100 µM with MDA-MB-231 breast; over 63 µM with OVCAR-5 ovarian; over 100 µM in the experiment with SF-295 CNS. For the same molecule, the TGI is 57.1 µM in the experiment with MALME-3M melanoma and 15.9 µM in the experiment with DU-145 prostate.

`CCCCN(CCCC)CC(C)(C)C(O)c1ccc(OC)c2ccccc12` (configuration not stated): the GI50 is 3.55 µM with MCF7 breast; 5.11 µM in the experiment with SK-MEL-2 melanoma; 0.875 µM in the experiment with HT29 colon; 6.76 µM in the experiment on MDA-MB-231 breast; 2.4 µM in the experiment with OVCAR-5 ovarian; 2.28 µM in the experiment with SF-295 CNS. Also, the GI50 is 3.02 µM with MALME-3M melanoma and 10.2 µM in the experiment with DU-145 prostate. The TGI in the experiment with MCF7 breast turned out to be 15.4 µM; with SK-MEL-2 melanoma it was 17.7 µM; in the experiment with HT29 colon, 13.4 µM; with MDA-MB-231 breast, 21.9 µM; in the experiment on OVCAR-5 ovarian it was 16.4 µM; in the experiment on SF-295 CNS it was 17.8 µM. Besides, the TGI was 16.6 µM with MALME-3M melanoma and 52.3 µM in the experiment on DU-145 prostate.

As for `CCCCCCNC(=O)Oc1ccc(/C(=C(\C)c2ccccc2)c2ccc(OCCN3CCCCC3)cc2)cc1`, the GI50 in the experiment on MCF7 breast is 0.0428 µM; in the experiment on SK-MEL-2 melanoma, 2 µM; in the experiment with HT29 colon it was 1.38 µM; in the experiment on MDA-MB-231 breast, 2.09 µM; in the experiment with OVCAR-5 ovarian, 9.75 µM; in the experiment with SF-295 CNS it was 1.74 µM. For the same molecule, the figures for the GI50 in the experiment with MALME-3M melanoma and in the experiment on DU-145 prostate were 1.75 µM and 3.69 µM, respectively. Further, the TGI is 3.64 µM with MCF7 breast; 4.33 µM in the experiment on SK-MEL-2 melanoma; 3.89 µM in the experiment on HT29 colon; 4.96 µM with MDA-MB-231 breast; 24.1 µM in the experiment with OVCAR-5 ovarian; 3.5 µM in the experiment with SF-295 CNS. Also, the TGI in the experiment with MALME-3M melanoma amounted to 3.46 µM; with DU-145 prostate it was 15.3 µM.

In the case of `C=C1C(=O)O[C@H]2[C@H]1[C@H](OC(=O)/C(C)=C\C)C[C@]1(CO1)[C@@H]1[C@H](OC(C)=O)C=C(C)[C@]21O`, the TGI is 29.1 µM with MCF7 breast; over 58.3 µM in the experiment with SK-MEL-2 melanoma; 30.4 µM in the experiment with HT29 colon; 39.5 µM in the experiment with MDA-MB-231 breast; over 59.1 µM in the experiment with OVCAR-5 ovarian; over 100 µM in the experiment with SF-295 CNS. Moreover, the TGI was 35.3 µM in the experiment with MALME-3M melanoma and 29 µM in the experiment on DU-145 prostate.

In the case of `Cc1ccccc1-n1c(/C=C\c2ccccn2)nc2ccccc2c1=O`, the GI50 in the experiment with MCF7 breast was 10.1 µM; in the experiment with SK-MEL-2 melanoma, 14.4 µM; with HT29 colon, 19.7 µM; in the experiment with MDA-MB-231 breast it was 4.69 µM; with OVCAR-5 ovarian, 19.5 µM; with SF-295 CNS, 6.76 µM. Also, the GI50 in the experiment on MALME-3M melanoma is 18.8 µM; in the experiment with DU-145 prostate it was 3.4 µM. In addition, the TGI in the experiment with MCF7 breast was 58.7 µM; with SK-MEL-2 melanoma, 38.5 µM; with HT29 colon, over 100 µM; with MDA-MB-231 breast, 59.2 µM; in the experiment on OVCAR-5 ovarian, over 100 µM; in the experiment on SF-295 CNS, 47.3 µM. Moreover, the figures for the TGI in the experiment on MALME-3M melanoma and in the experiment on DU-145 prostate were 42.1 µM and 11.3 µM, respectively.

Turning to `CC1CCCN(CC(O)CN2CCCc3ccccc32)C1` (configuration not stated), the TGI in the experiment on MCF7 breast, in the experiment on SK-MEL-2 melanoma, in the experiment with HT29 colon, in the experiment on MDA-MB-231 breast, in the experiment with OVCAR-5 ovarian and in the experiment on SF-295 CNS was over 100 µM throughout. Moreover, the TGI in the experiment on MALME-3M melanoma and in the experiment on DU-145 prostate was over 100 µM throughout.
